Our source for the IC50 values is US10959986B2, “Inhibitors of indoleamine 2,3-dioxygenase and methods of their use” (BRISTOL-MYERS SQUIBB COMPANY, priority 2018, dated 2021).

In general, IC50 refers to the concentration at which inhibition is half-maximal.

The assay addresses T1, indoleamine 2,3-dioxygenase (IDO) (Homo sapiens, UniProt P14902).
T1 construct: media containing IFNγ (#285-IF/CF, R&D Systems) at a final concentration of 25 ng/mL; endogenous in cells; host or cells: HeLa (ATCC CCL-2), induced with IFN-gamma
Briefly: HeLa cell-based indoleamine 2,3-dioxygenase (IDO) assay. The settings on record: HeLa cells with IFNγ 25 ng/mL, 48 hour incubation, kynurenine production. On the procedure: Assessment of Inhibitor Activity in HeLa Cell-Based Indoleamine 2,3-Dioxygenase (IDO) Assay.
HeLa (ATCCR CCL-2) cells were obtained from the ATCC® and cultured in Dulbecco's Modified Eagle Medium supplemented with 4.5 g/L glucose, […] L-glutamine and […] (#10-013-CV, Corning), 2 mM L-alanyl-L-glutamine dipeptide (#35050-061, Gibco), 100U/mL penicillin, 100 µg/mL streptomycin (#SV30010, HyClone) and 10% fetal bovine serum (#SH30071.03 HyClone). Cells were maintained in a humidified incubator at 37° C. in 5% CO2.
IDO activity was assessed as a function of kynurenine production as follows: HeLa cells were seeded in a 96-well culture plate at a density of 5,000 cells/well and allowed to equilibrate overnight. After 24 hours, the media was aspirated and replaced with media containing IFNγ (#285-IF/CF, R&D Systems) at a final concentration of 25 ng/mL. A serial dilution of each test compound was added to the cells in a total volume of 200 μL of culture medium. After a further 48 hour incubation, 170 μL of supernatant was transferred from each well to a fresh 96-well plate. 12.1 μL of 6. IN trichloroacetic acid (#T0699, Sigma-Aldrich) was added to each well and mixed, followed by incubation at 65° C. for 20 minutes to hydrolyze N-formylkynurenine, the product of indoleamine 2,3-dioxygenase, to kynurenine. The reaction mixture was then centrifuged for 10 mins at 500×g to sediment the precipitate. 100 μL of the supernatant was transferred from each well to a fresh 96-well plate. 100 μl of 2% (w/v) p-dimethylaminobenzaldehyde (#15647-7, Sigma-Aldrich) in acetic acid (#A6283, Sigma-Aldrich) was added to each well mixed and incubated at room temperature for 20 mins. Kynurenine concentrations were determined by measuring absorbance at 480 nm and calibrating against an L-kynurenine (#K8625, Sigma-Aldrich) standard curve using a SPECTRAMAX® M2e microplate reader (Molecular Devices). The percentage activity at each inhibitor concentration was determined and IC50 values assessed using nonlinear regression.

The mark [1] stands for this setting: read-out: IDO Hela IC50 potency class (A < 50, B < 250, C < 2000).

The structures appear in SMILES notation. Like-named read-outs stand apart in the source and are kept apart here.

T1 sequence (P14902 whole entry): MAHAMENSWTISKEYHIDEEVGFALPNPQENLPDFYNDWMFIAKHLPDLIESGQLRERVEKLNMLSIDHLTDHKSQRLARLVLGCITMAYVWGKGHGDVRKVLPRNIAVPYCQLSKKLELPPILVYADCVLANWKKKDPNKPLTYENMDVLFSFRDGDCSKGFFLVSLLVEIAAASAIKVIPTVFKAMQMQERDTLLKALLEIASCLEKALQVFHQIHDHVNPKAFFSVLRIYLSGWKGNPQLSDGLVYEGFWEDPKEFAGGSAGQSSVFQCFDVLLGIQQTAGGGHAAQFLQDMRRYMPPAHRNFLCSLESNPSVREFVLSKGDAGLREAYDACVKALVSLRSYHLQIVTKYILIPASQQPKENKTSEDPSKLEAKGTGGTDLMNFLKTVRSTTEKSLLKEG

As to `CC[C@H](CC(=O)O)c1ccc(C2CCN(C(=O)OC(C)(C)C)CC2)c(Nc2cnc(C)nc2)c1` (single isomer, unassigned) [Example 27], under “read-out: IDO Hela IC50”, the IC50 amounted to 820 nM. Same read-out and setting: to `CCOc1ncc(Nc2cc([C@H](CC)CC(=O)O)ccc2-c2ccnc(N3CCOCC3)n2)cn1` (single isomer, unassigned) [Example 84] belongs 760 nM.

In the case of `CC[C@H](CC(=O)O)c1ccc(-c2cnn(C)c2)c(Nc2ccc(Cl)cn2)c1` (single isomer, unassigned) [Example 6], the IC50 (read-out: IDO Hela IC50) is 470 nM. On the same count and under the same terms, to `COC[C@@H](CC(=O)O)c1ccc(-c2cnn(Cc3ccc(OC)cc3)c2)c(Nc2ccc(C#N)cc2)c1` (single isomer, unassigned) [Example 36] belongs 30 nM. `CCOc1ncc(Nc2cc([C@H](CC)CC(=O)O)ccc2-c2nc(-c3ccccc3)cs2)cn1` (single isomer, unassigned) [Example 87]: the IC50 reads like this: (read-out: IDO Hela IC50) no less than 1000 nM; under setting [1], 250 to 2000 nM. `CCOc1ncc(Nc2cc([C@H](CC)CC(=O)O)ccc2-c2ccc(Cl)cc2)cn1` (single isomer, unassigned) [Example 71]: the IC50 (read-out: IDO Hela IC50) is 110 nM. In the case of `CC[C@H](CC(=O)O)c1ccc(-c2cnn(C(C)C)c2)c(NC(=O)Nc2ccc(Cl)cc2F)c1` (single isomer, unassigned) [Example 24], the IC50 runs as follows: (read-out: IDO Hela IC50) no less than 1000 nM; under setting [1], 250 to 2000 nM. As for `CCOc1ncc(Nc2cc([C@H](CC)CC(=O)O)ccc2-c2cccc(C(F)F)n2)cn1` (single isomer, unassigned) [Example 66], for the setting “read-out: IDO Hela IC50”, the IC50 was found to be 750 nM. The same measure, in the same setting: next, `CCOc1ncc(Nc2cc([C@H](CC)CC(=O)O)ccc2-c2ccc3c(c2)OC(F)(F)O3)cn1` (single isomer, unassigned) [Example 83]: 170 nM; `CCOc1ncc(Nc2cc([C@H](CC)CC(=O)O)ccc2-c2ncc(C)cn2)cn1` (single isomer, unassigned) [Example 69]: 110 nM. With `CCOc1ncc(Nc2cc([C@H](CC)CC(=O)O)ccc2-c2ccoc2)cn1` (single isomer, unassigned) [Example 46], under “read-out: IDO Hela IC50”, the concentration for half-maximal inhibition (IC50) was 40 nM.

Take `CCOc1ncc(Nc2cc([C@H](CC)CC(=O)O)ccc2-c2ccc(Cl)cc2F)cn1` (single isomer, unassigned) [Example 70]: the half-inhibitory concentration (IC50) (read-out: IDO Hela IC50) came to 230 nM. On to `CC[C@H](CC(=O)O)c1ccc(-c2cnn(C)c2)c(Nc2cccc(F)c2)c1` (single isomer, unassigned) [Example 8], for which the IC50 (read-out: IDO Hela IC50) worked out at 380 nM. On the same count and under the same terms, next, `COC[C@H](CC(=O)O)c1ccc(-c2cnn(Cc3ccc(OC)cc3)c2)c(Nc2ccc(C#N)cc2)c1` (single isomer, unassigned) [Example 45]: 50 nM. Regarding `CCOc1ncc(Nc2cc([C@H](CC)CC(=O)O)ccc2-c2ccncc2F)cn1` (single isomer, unassigned) [Example 52], the 50% inhibitory concentration (IC50) (read-out: IDO Hela IC50) was no less than 1000 nM and the IC50 under setting [1] is 250 to 2000 nM.

Turning to `CCOc1ncc(Nc2cc([C@H](CC)CC(=O)O)ccc2-c2cnn(CCN3CCOCC3)c2)cn1` (single isomer, unassigned) [Example 55], the IC50 (read-out: IDO Hela IC50) is no less than 1000 nM and the IC50 under setting [1] was in the range of 250 to 2000 nM. With `CCOc1ncc(Nc2cc([C@H](CC)CC(=O)O)ccc2-c2ccc(C#N)c(OC)c2)cn1` (single isomer, unassigned) [Example 80], the 50% inhibitory concentration (IC50) is no less than 1000 nM (read-out: IDO Hela IC50) and 250 to 2000 nM under setting [1]. With `CCOc1ncc(Nc2cc([C@H](CC)CC(=O)O)ccc2-c2ccc(Cl)c(F)c2)cn1` (single isomer, unassigned) [Example 72], for the setting “read-out: IDO Hela IC50”, the IC50 is 210 nM. On to `CCc1ncc(Nc2cc([C@H](CC)CC(=O)O)ccc2-c2cnn(C)c2)cn1` (single isomer, unassigned) [Example 13], for which the IC50 (read-out: IDO Hela IC50) is no less than 1000 nM and the concentration for half-maximal inhibition (IC50) under setting [1] lay in the range of 250 to 2000 nM. In the case of `CC[C@H](CC(=O)O)c1ccc(-c2cnn(C)c2)c(Nc2ccc(Cl)cc2)c1` (single isomer, unassigned) [Example 4], for the setting “read-out: IDO Hela IC50”, the IC50 worked out at 10 nM.

`CCOc1ncc(Nc2cc([C@H](CC)CC(=O)O)ccc2C2CCN(C(=O)OC(C)(C)C)CC2)cn1` (single isomer, unassigned) [Example 25]: the IC50 (read-out: IDO Hela IC50) was found to be 20 nM.

Consider `COC[C@H](CC(=O)O)c1ccc(-c2cnn(Cc3ccccc3)c2)c(Nc2ccc(C#N)cc2)c1` (single isomer, unassigned) [Example 44], for which the IC50 (read-out: IDO Hela IC50) came out at 450 nM.

As for `CCOc1ncc(Nc2cc([C@H](CC)CC(=O)O)ccc2-c2ccc3cncn3c2)cn1` (single isomer, unassigned) [Example 85], the IC50 (read-out: IDO Hela IC50) is no less than 1000 nM and the IC50 under setting [1] lay within 250 to 2000 nM. On to `CCOc1ncc(Nc2cc([C@H](CC)CC(=O)O)ccc2-c2ccc(OC)cc2F)cn1` (single isomer, unassigned) [Example 53], for which the IC50 (read-out: IDO Hela IC50) turned out to be 30 nM. Same read-out and setting: next, `COC[C@H](CC(=O)O)c1ccc(-c2ccc3c(c2)CCO3)c(Nc2ccc(C#N)cc2)c1` (single isomer, unassigned) [Example 40]: 90 nM; `COC[C@@H](CC(=O)O)c1ccc(-c2sc(C)nc2C)c(Nc2ccc(C#N)cc2)c1` (single isomer, unassigned) [Example 59]: 220 nM. For the compound `COC[C@@H](CC(=O)O)c1ccc(-c2cnn(C)c2)c(Nc2ccc(C#N)cc2)c1` (single isomer, unassigned) [Example 33, 3-(3-((4-cyanophenyl)amino)-4-(1-methyl-1H-pyrazol-4-yl)phenyl)-4-methoxybutanoic Acid], the IC50 is no less than 1000 nM (read-out: IDO Hela IC50) and 250 to 2000 nM under setting [1]. With `CCc1ncc(Nc2cc([C@H](CC)CC(=O)O)ccc2-c2sc(C)nc2C)cn1` (single isomer, unassigned) [Example 57], the IC50 (read-out: IDO Hela IC50) was found to be 110 nM. The same measure, in the same setting: to `CC[C@H](CC(=O)O)c1ccc(-c2cnn(C)c2)c(Nc2ccc(F)cc2)c1` (single isomer, unassigned) [Example 3] belongs 40 nM. Same read-out and setting: to `CC[C@H](CC(=O)O)c1ccc(-c2nnc(C)s2)c(Nc2ccc(Cl)cc2)c1` (single isomer, unassigned) [Example 22] belongs 30 nM. `CC[C@H](CC(=O)O)c1ccc(-c2c(C)noc2C)c(Nc2ccc(Cl)cc2)c1` (single isomer, unassigned) [Example 17]: the IC50 (read-out: IDO Hela IC50) turned out to be 10 nM.

Turning to `CC[C@H](CC(=O)O)c1ccc(-c2cn[nH]c2)c(Nc2ccc(Cl)cc2)c1` (single isomer, unassigned) [Example 18], under “read-out: IDO Hela IC50”, the IC50 was 70 nM.

Turning to `CCOc1ncc(Nc2cc([C@H](CC)CC(=O)O)ccc2-c2ncc(F)cn2)cn1` (single isomer, unassigned) [Example 63], under “read-out: IDO Hela IC50”, the IC50 came out at 700 nM.

As for `CC[C@@H](CC(=O)O)c1ccc(C2CCN(C(=O)OC(C)(C)C)CC2)c(Nc2cnc(C)nc2)c1` (single isomer, unassigned) [Example 28], where the note is “read-out: IDO Hela IC50”, the IC50 was 760 nM. Consider `CCOc1ncc(Nc2cc([C@H](CC)CC(=O)O)ccc2-c2ccn3ccnc3c2)cn1` (single isomer, unassigned) [Example 86], for which the IC50 (read-out: IDO Hela IC50) is no less than 1000 nM and the 50% inhibitory concentration (IC50) under setting [1] is 250 to 2000 nM. Take `CCOc1ncc(Nc2cc([C@H](CC)CC(=O)O)ccc2-c2cnn(Cc3ccc(OC)cc3)c2)cn1` (single isomer, unassigned) [Example 47]: the IC50 (read-out: IDO Hela IC50) stood at 10 nM. Still for that read-out and setting: to `COC[C@@H](CC(=O)O)c1ccc(-c2ccc3c(c2)OCO3)c(Nc2ccc(C#N)cc2)c1` (single isomer, unassigned) [Example 34] belongs 320 nM; to `CCOc1ncc(Nc2cc([C@H](CC)CC(=O)O)ccc2C2=CC3CCC(C2)N3C(=O)OC(C)(C)C)cn1` (single isomer, unassigned) [Example 56], 390 nM. As for `CC[C@H](CC(=O)O)c1ccc(-c2cnn(C)c2)c(Nc2cccnc2)c1` (single isomer, unassigned) [Example 11], the IC50 is no less than 1000 nM (read-out: IDO Hela IC50) and 250 to 2000 nM under setting [1].

Consider `COC[C@H](CC(=O)O)c1ccc(-c2ccoc2)c(Nc2ccc(C#N)cc2)c1` (single isomer, unassigned) [Example 39], for which, for the setting “read-out: IDO Hela IC50”, the IC50 was determined as 20 nM.
